US4684651A, “Alkylenedioxybenzene and acid addition salts thereof useful as hypotensives” (Mitsubishi Chemical Industries Limited, priority 1981, dated 1987)
Structures can show the parent of a compound that is named as a salt.

Tests used:
[1] = system: spontaneous hypertensive rats (SHR); assay: Hypotensive activity in spontaneous hypertensive rats (oral); assay type: in vivo; settings: Rattus norvegicus, relative to blood pressure before medication, read-out: Hypotensive effect (average % drop in blood pressure); for inhibition in vivo at 1 mg/kg: 1 mg/kg p.o.; for inhibition in vivo at 3 mg/kg: 3 mg/kg p.o.; for inhibition in vivo at 10 mg/kg: 10 mg/kg p.o.
Experimental: The hypotensive activities of the compounds of this invention were tested as follows: The test animals used were spontaneous hypertensive rats (SHR) of 5 to 7 month old weighing 300 to 370 g. The blood pressure and the heart rate were measured bloodily under no anesthesia by means of a catheter which has been inserted through the tail's artery under ether anesthesia, thereby determining the average blood pressure and heart rate before medication. […] The hypotensive effect was expressed as percent drop relative to the blood pressure before medication.

[2] = Acute toxicity (LD50) in mice; settings: mouse, in vivo, iv, Litchfield-Wilcoxon method
Experimental: The values for acute toxicity (LD50) were calculated by the Litchfield-Wilcoxon method from the data obtained on mice.

Row | Structure (SMILES) | inhibition in vivo at 1 mg/kg [1] | inhibition in vivo at 3 mg/kg [1] | inhibition in vivo at 10 mg/kg [1] | LD50 [2]
1 | COc1ccccc1N1CCN(CC(O)c2ccc3c(c2)OCO3)CC1 (centres unmarked) [Compound 2, 5-[2-[4-(2-methoxyphenyl)-1-piperazinyl]-1-hydroxyethyl]-1,3-benzodioxole] | 10.2% | 19.2% | 36.5% | 
2 | OC(CN1CCN(c2ccccc2)CC1)c1ccc2c(c1)OCCCO2 (centres unmarked) [Compound 8, 7-[2-(4-phenyl-1-piperazinyl)-1-hydroxyethyl]-1,5-benzodioxepine] | 8.6% | 14.1% | 25% | 
3 | OC(CCN1CCN(c2ccccc2Cl)CC1)c1ccc2c(c1)OCCO2 (centres unmarked) [Compound 16] | 7.9% | 11.9% | 29.8% | 
4 | COc1ccccc1N1CCN(CCC(O)c2ccc3c(c2)OCCO3)CC1 (centres unmarked) [Compound 17] | 8.1% | 20.5% | 53.1% | 
5 | OC(CCCN1CCN(c2ccccc2)CC1)c1ccc2c(c1)OCO2 (centres unmarked) [Compound 19, 5-[4-(4-phenyl-1-piperazinyl)-1-hydroxybutyl]-1,3-benzodioxole dihydrochloride] | 12.8% | 45.9% | 56.6% | 
6 | OC(CCCN1CCN(c2ccccc2)CC1)c1ccc2c(c1)OCCO2 (centres unmarked) [Compound 20, 6-[4-(4-phenyl-1-piperazinyl)-1-hydroxybutyl]-1,4-benzodioxane] | 13.7% | 38.4% | 56.1% | 
7 | OC(CCCN1CCN(c2ccccc2)CC1)c1ccc2c(c1)OCCCO2 (centres unmarked) [Compound 21] | 19.8% | 30.9% | 43.4% | 184 mg/kg
8 | OC(CCCN1CCN(c2ccccn2)CC1)c1ccc2c(c1)OCCCO2 (centres unmarked) [Compound 25] | 30.3% | 35.8% | 43.9% | 68.5 mg/kg
9 | OC(CCCCN1CCN(c2ccccc2)CC1)c1ccc2c(c1)OCO2 (centres unmarked) [Compound 26, 5-[5-(4-phenyl-1-piperazinyl)-1-hydroxypentyl]-1,3-benzodioxole] | 13% | 21.9% | 52.6% | 
10 | OC(CCCCN1CCN(c2ccccc2)CC1)c1ccc2c(c1)OCCCO2 (centres unmarked) [Compound 29, 7-[5-(4-phenyl-1-piperazinyl)-1-hydroxypentyl]-1,5-benzodioxepine] | 10.8% | 27.5% | 50.7% | 
11 | OC(CCCN1CCN(c2ccccn2)CC1)c1ccc2c(c1)OCO2 (centres unmarked) [Compound 31, 5-[4-[4-(2-pyridyl)-1-piperazinyl]-1-hydroxybutyl]-1,3-benzodioxole] | 11.5% | 33.6% | 45.7% | 
12 | COc1ccccc1N1CCN(CCCC(O)c2ccc3c(c2)OCCO3)CC1 (centres unmarked) [Compound 33, 6-[4-[4-(2-methoxyphenyl)-1-piperazinyl]-1-hydroxybutyl]-1,4-benzodioxane] | 22.6% | 41.8% | 43.2% | 
13 | COc1ccccc1N1CCN(CCCC(O)c2ccc3c(c2)OCCCO3)CC1 (centres unmarked) [Compound 34, 7-[4-[4-(2-methoxyphenyl)-1-piperazinyl]-1-hydroxybutyl]-1,5-benzodioxepine] | 24.5% | 40.4% | 48% | 
14 | OC(CCCCN1CCN(c2ccccn2)CC1)c1ccc2c(c1)OCCCO2 (centres unmarked) [Compound 36] | 10.1% | 19.4% | 31% | 
15 | COc1ccccc1N1CCN(CCCCC(O)c2ccc3c(c2)OCCCO3)CC1 (centres unmarked) [Compound 37] | 15.6% | 30.4% | 45.7% | 
16 | O=C(CCN1CCN(c2cccc(F)c2)CC1)c1ccc2c(c1)OCCO2 [Compound 51] | 5.9% | 14.5% | 49.9% | 

Row | Structure (SMILES) | inhibition in vivo at 1 mg/kg [1] | inhibition in vivo at 3 mg/kg [1] | inhibition in vivo at 10 mg/kg [1] | LD50 [2]
17 | O=C(CCN1CCN(c2ccccc2)CC1)c1ccc2c(c1)OCCCO2 [Compound 56] | 6.2% | 17% | 31.5% | 
18 | O=C(CCCN1CCN(c2ccccc2)CC1)c1ccc2c(c1)OCCO2 [Compound 58, 6-[4-(4-phenyl-1-piperazinyl)butyryl]-1,4-benzodioxane] | 12.7% | 51.6% | 62.7% | 
19 | O=C(CCCN1CCN(c2ccccc2)CC1)c1ccc2c(c1)OCCCO2 [Compound 59] | 9.8% | 34.4% | 40.5% | 
20 | O=C(CCCCN1CCN(c2ccccc2)CC1)c1ccc2c(c1)OCO2 [Compound 64, 5-[5-(4-phenyl-1-piperazinyl]valeryl]-1,3-benzodioxole] | 10.1% | 21.3% | 54.5% | 45.7 mg/kg
21 | O=C(CCCCN1CCN(c2ccccc2)CC1)c1ccc2c(c1)OCCO2 [Compound 65, 6-[5-(4-phenyl-1-piperwzinyl)valeryl]-1,4-benzodioxane] | 21.7% |  |  | 
22 | O=C(CCCCN1CCN(c2ccccc2)CC1)c1ccc2c(c1)OCCCO2 [Compound 68, 7-[5-(4-phenyl-1-piperazinyl)valeryl]-1,5-benzodioxepine] | 12.5% | 28.6% | 44% | 
23 | COc1ccccc1N1CCN(CCCCC(=O)c2ccc3c(c2)OCCCO3)CC1 [Compound 69] | 23.8% |  |  | 
24 | O=C(CCCN1CCN(c2ccccn2)CC1)c1ccc2c(c1)OCO2 [Compound 71, 5-[4-[4-(2-pyridyl)-1-piperazinyl]butyryl]-1,3-benzodioxole] | 11.5% | 20.9% | 43.1% | 
25 | O=C(CCCN1CCN(c2ccccn2)CC1)c1ccc2c(c1)OCCO2 [Compound 72, 6-[4-[4-(2-pyridyl)-1-piperazinyl]butyryl]-1,4-benzodioxane] | 10.1% | 25.3% | 46.4% | 
26 | COc1ccccc1N1CCN(CCCC(=O)c2ccc3c(c2)OCCO3)CC1 [Compound 74, 6-[4-[4-(2-methoxyphenyl)-1-piperazinyl]butyryl]-1,4-benzodioxane] | 29.9% |  |  | 
27 | COc1ccccc1N1CCN(CCCCC(=O)c2ccc3c(c2)OCCO3)CC1 [Compound 76, 6-[5-[4-(2-methoxyphenyl)-1-piperazinyl]varleryl]-1,4-benzodioxane] | 8.6% | 23.7% | 56.7% | 
28 | COc1ccccc1N1CCN(CCCCC(=O)c2ccc3c(c2)OCO3)CC1 [Compound 77, 5-[5-[4-(2-methoxyphenyl)-1-piperazinyl]valeryl]-1,3-benzodioxole] | 12.9% | 21.5% | 34.5% | 
29 | O=C(CCCCN1CCN(c2ccccn2)CC1)c1ccc2c(c1)OCCCO2 [Compound 78, 7-[5-[4-(2-pyridyl)-1-piperazinyl]valeryl]-1,5-benzodioxepine] | 13.7% | 24.9% | 27.8% | 
30 | COc1ccccc1N1CCN(CCCCC(=O)c2ccc3c(c2)OCC(C)(C)CO3)CC1 [Compound 79, 7-[5-[4-(2-methoxyphenyl)-1-piperazinyl]valeryl]-3,3-dimethyl-1,5-benzodioxepine] | 8% | 15.8% | 32.5% | 
31 | COc1ccccc1N1CCN(CCN(C(C)=O)c2ccc3c(c2)OCO3)CC1 [Compound 81, N-[2-[4-(2-methoxyphenyl)-1-piperazinyl]ethyl]-N-acetyl-3,4-methylenedioxyaniline hydrochloride] | 15.5% | 21.2% |  | 
